From ChEMBL document CHEMBL1126491, “Dual antagonists of platelet activating factor and histamine. 2. pyridine ring substitution of N-acetyl-4-(8-chloro-5,6-dihydro-11H-benzo[5,6]cyclohepta[1,2-b]pyridin-11-ylidene)piperidines” (Bioorg Med Chem Lett, 1993) come the findings set out here.

The species entered for test [1] is Homo sapiens. In words: Concentration for inhibition of PAF-induced platelet aggregation in human platelet-rich plasma. It is filed as functional.
The target of test [2] is Histamine H1 receptor (Rattus norvegicus, UniProt P31390). Kind of test: Ability to displace [3H]-pyrilamine from H1 receptor in rat brain membrane. It is filed as cell membranes.
Sequence of Histamine H1 receptor (P31390 whole entry): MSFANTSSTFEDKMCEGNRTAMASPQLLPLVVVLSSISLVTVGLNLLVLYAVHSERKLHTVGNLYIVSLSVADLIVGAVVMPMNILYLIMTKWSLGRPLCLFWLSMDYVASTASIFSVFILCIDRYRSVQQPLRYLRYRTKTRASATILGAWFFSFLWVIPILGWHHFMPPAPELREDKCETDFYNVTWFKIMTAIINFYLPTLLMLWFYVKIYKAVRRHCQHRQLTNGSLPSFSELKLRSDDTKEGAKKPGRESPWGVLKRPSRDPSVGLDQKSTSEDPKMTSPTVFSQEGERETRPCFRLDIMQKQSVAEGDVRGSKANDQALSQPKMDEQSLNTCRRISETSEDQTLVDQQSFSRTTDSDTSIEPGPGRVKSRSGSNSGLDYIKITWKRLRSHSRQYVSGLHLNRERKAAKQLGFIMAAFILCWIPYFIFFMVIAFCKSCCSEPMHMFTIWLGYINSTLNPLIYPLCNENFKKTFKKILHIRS

`CC(=O)N1CCC(=C2c3ccc(Cl)cc3CCc3cc(-c4ccccc4)cnc32)CC1` showed an IC50 in test [1] of 1.08 µM. For the same compound, in test [2], the Ki came out at 0.23 µM.
`CC(=O)N1CCC(=C2c3ccc(Cl)cc3CCc3ccc(C)nc32)CC1` had a half-maximal inhibitory concentration (IC50) in test [1] of 0.28 µM. In test [2], the Ki is 1.03 µM.
In turn, `COc1ccc2c(n1)C(=C1CCN(C(C)=O)CC1)c1ccc(Cl)cc1CC2` yielded an IC50 in test [1] of 6 µM. In test [2], this compound yielded a Ki of more than 10 µM.
The corresponding values for `CC(=O)N1CCC(=C2c3ccc(Cl)cc3CCc3c(Cl)ccnc32)CC1` are 8 µM and 0.24 µM.
With `CC(=O)N1CCC(=C2c3ccc(Cl)cc3CCc3cc(Br)cnc32)CC1`, the midpoint of inhibition in test [1], the IC50, lay at 2.29 µM. The affinity in test [2], expressed as Ki, was 0.01 µM.
The compound `COc1ccnc2c1CCc1cc(Cl)ccc1C2=C1CCN(C(C)=O)CC1` had a 50% inhibitory concentration (IC50) in test [1] of 3.04 µM. Besides, the Ki in test [2] is more than 10 µM.
On to `COc1cnc2c(c1)CCc1cc(Cl)ccc1C2=C1CCN(C(C)=O)CC1`, for which, in test [1], the IC50 amounted to 1.48 µM. The compound also yielded a Ki in test [2] of 0.43 µM.
Take `CSc1cnc2c(c1)CCc1cc(Cl)ccc1C2=C1CCN(C(C)=O)CC1`: it took 0.6 µM to reach half-maximal inhibition in test [1] (IC50). Also, the Ki in test [2] was 0.21 µM.
On the same counts, the results for `CC(=O)N1CCC(=C2c3ccc(Cl)cc3CCc3cc(Cl)cnc32)CC1` are 0.94 µM and 0.1 µM.
Take `CC(=O)N1CCC(=C2c3ccc(Cl)cc3CCc3c(O)ccnc32)CC1`: the IC50 in test [1] is not below 50 µM. The compound further had a Ki in test [2] of more than 10 µM.
The corresponding values for `CC(=O)N1CCC(=C2c3ccc(Cl)cc3CCc3cc(C(C)O)cnc32)CC1` (centres undefined) are 1.07 µM and 0.04 µM.
On to `CC(=O)c1cnc2c(c1)CCc1cc(Cl)ccc1C2=C1CCN(C(C)=O)CC1`, for which, in test [1], the IC50 came to 2.08 µM. For the same compound, the Ki in test [2] was 1.16 µM.
In test [1], `CC(=O)N1CCC(=C2c3ccc(Cl)cc3CCc3cc(C=O)cnc32)CC1` showed an IC50 of 2.73 µM. Besides, affinity in test [2] was put at a Ki of 0.7 µM.
The corresponding values for `CC(=O)N1CCC(=C2c3ccc(Cl)cc3CCc3cc(CO)cnc32)CC1` are 0.69 µM and 0.02 µM.
On to `CC(=O)N1CCC(=C2c3ccc(Cl)cc3CCc3ccc(Cl)nc32)CC1`, for which, in test [1], it took 0.61 µM to reach half-maximal inhibition (IC50). Further, the inhibitory constant (Ki) in test [2] is 1.36 µM.
`CC(=O)N1CCC(=C2c3ccc(Cl)cc3CCc3ccc(O)nc32)CC1` had a concentration for half-maximal inhibition (IC50) in test [1] of 6.75 µM. Also, in test [2], the Ki is more than 10 µM.
`CC(=O)N1CCC(=C2c3ccc(Cl)cc3CCc3c(C)ccnc32)CC1` had an IC50 in test [1] of 6 µM. The same compound gave a Ki in test [2] of 0.23 µM.
In test [1], `CC(=O)N1CCC(=C2c3ccc(Cl)cc3CCc3cc(C)cnc32)CC1` came in with an IC50 of 0.34 µM. Further, in test [2], the affinity, expressed as Ki, was 0.07 µM.
Regarding `CC(=O)N1CCC(=C2c3ccc(Cl)cc3CCc3cc(O)cnc32)CC1`, the IC50 in test [1] came to 4.13 µM. The compound also gave a Ki in test [2] of 1.58 µM.
Take `CC(=O)N1CCC(=C2c3ccc(Cl)cc3CCc3cccnc32)CC1` [SCH-37370]: the IC50 in test [1] amounted to 0.61 µM.
